Where two headings read alike, the source gives them in different places.
Tests used:
P. falciparum = conditions: IBSM, cited from earlier work
P. falciparum 3D7 = experiment: Induced blood-stage malaria (IBSM) volunteer infection study: parasitemia by 18S rRNA qPCR; format: in vivo, Plasmodium falciparum
Source text: A single cohort of eight subjects was inoculated intravenously with P. falciparum 3D7-infected human erythrocytes (approximately 1,800 viable parasites) as previously described ([24]). Parasite growth was monitored by collecting blood samples and performing quantitative PCR (qPCR) targeting the gene encoding P. falciparum 18S rRNA ([25]). […] The dose of cipargamin selected was predicted to be subtherapeutic based on preclinical modeling ([7]) and pharmacokinetic data obtained in previous clinical studies ([8]) and thus chosen to facilitate modeling to estimate the pharmacokinetic/pharmacodynamic relationship. To monitor total parasitemia, blood samples were collected for 18S rRNA qPCR before inoculation, on day 3, twice daily on days 4 to 6, pretreatment on day 7, and 4, 8, 12, 16, 24, 30, and 36 h posttreatment, twice daily from day 9 to day 11, and every 1 to 3 days until day 35. Blood samples for gametocytemia measurements were collected on day 11, every 1 to 3 days between day 15 and day 29, and on day 35. […] Analyses were performed in R version 3.3.0. The PRR and parasite clearance half-life were estimated using the slope of the optimal fit for the log-linear relationship of the parasitemia decay as described previously ([27]).

In the case of `Cc1cc(Nc2ccc(S(F)(F)(F)(F)F)cc2)n2nc(C(C)(F)F)nc2n1` [DSM265], the parasite clearance half-life (P. falciparum; 150 mg single dose) is listed as 9.4 h.
For `OC(c1cc(C(F)(F)F)nc2c(C(F)(F)F)cccc12)C1CCCCN1` (centres unmarked) [mefloquine], the parasite clearance half-life (P. falciparum; 10 mg/kg single dose) is listed as 6.2 h.
For `Clc1ccc2c(N3CCN(CCCN4CCN(c5ccnc6cc(Cl)ccc56)CC4)CC3)ccnc2c1` [piperaquine, reference compound], the “clearance of asexual parasite regrowth” value (P. falciparum 3D7; 960 mg single oral dose after regrowth post-cipargamin) is listed as “successful in clearing asexual parasite regrowth”, the “second parasite regrowth, number of subjects” value (P. falciparum 3D7; after 960 mg piperaquine, 8 subjects) is listed as 3 subjects and the parasite clearance half-life (P. falciparum; 640 mg single dose) is listed as 5.22 h.
